Assays:
Type in all cases: functional
DU-145 = experiment: Growth inhibition of human DU145 cells assessed as cell growth at 10^-4 M after 48 hrs by sulforhodamine B assay; conditions: DU-145, 48 h, read-out: Activity
NCI-H322M = experiment: Growth inhibition of human NCI-H322M cells assessed as cell growth at 10^-8 M after 48 hrs by sulforhodamine B assay; conditions: for growth at 0.01 µM: read-out: Activity; for TGI: read-out: pTGI (converted)
SF-268 = experiment: Growth inhibition of human SF268 cells assessed as cell growth at 10^-7 M after 48 hrs by sulforhodamine B assay; conditions: SF-268, 48 h, read-out: Activity
KM12 = experiment: Growth inhibition of human KM12 cells assessed as cell growth at 10^-6 M after 48 hrs by sulforhodamine B assay; conditions: KM12, 48 h, read-out: Activity
HOP-62 [1] = experiment: Growth inhibition of human HOP62 cells assessed as cell growth at 10^-6 M after 48 hrs by sulforhodamine B assay; conditions: HOP-62, 48 h, read-out: Activity
[2] = Growth inhibition of human UACC257 cells assessed as cell growth at 10^-6 M after 48 hrs by sulforhodamine B assay; conditions: UACC-257, 48 h, read-out: Activity
T47D = experiment: Growth inhibition of human T47D cells assessed as cell growth at 10^-4 M after 48 hrs by sulforhodamine B assay; conditions: read-out: Activity
SK-MEL-28 = experiment: Growth inhibition of human SK-MEL-28 cells assessed as cell growth at 10^-7 M after 48 hrs by sulforhodamine B assay; conditions: SK-MEL-28, 48 h, read-out: Activity
[3] = Growth inhibition of human OVCAR4 cells assessed as cell growth at 10^-7 M after 48 hrs by sulforhodamine B assay; conditions: OVCAR-4, 48 h, read-out: Activity
[4] = Growth inhibition of human NCI-ADR-RES cells assessed as cell growth at 10^-7 M after 48 hrs by sulforhodamine B assay; conditions: read-out: Activity
[5] = Growth inhibition of human SF295 cells assessed as cell growth at 10^-6 M after 48 hrs by sulforhodamine B assay; conditions: SF-295, 48 h, read-out: Activity
[6] = Growth inhibition of human UACC257 cells after 48 hrs by sulforhodamine B assay; conditions: UACC-257, 48 h; for CC50: read-out: LC50 (the source's name)
NCI-H23 = experiment: Growth inhibition of human NCI-H23 cells assessed as cell growth at 10^-6 M after 48 hrs by sulforhodamine B assay; conditions: NCI-H23, 48 h, read-out: Activity
[7] = Growth inhibition of human Hs 578T cells assessed as cell growth at 10^-8 M after 48 hrs by sulforhodamine B assay
HOP-62 [8] = experiment: Growth inhibition of human HOP62 cells assessed as cell growth at 10^-4 M after 48 hrs by sulforhodamine B assay; conditions: HOP-62, 48 h, read-out: Activity
TK-10 [9] = experiment: Growth inhibition of human TK10 cells assessed as cell growth at 10^-6 M after 48 hrs by sulforhodamine B assay; conditions: TK-10, 48 h, read-out: Activity
TK-10 [10] = experiment: Growth inhibition of human TK10 cells assessed as cell growth at 10^-4 M after 48 hrs by sulforhodamine B assay; conditions: TK-10, 48 h, read-out: Activity
TK-10 [11] = experiment: Growth inhibition of human TK10 cells assessed as cell growth at 10^-8 M after 48 hrs by sulforhodamine B assay; conditions: TK-10, 48 h
TK-10 [12] = experiment: Growth inhibition of human TK10 cells after 48 hrs by sulforhodamine B assay; conditions: TK-10, 48 h
PC-3 = experiment: Growth inhibition of human PC3 cells assessed as cell growth at 10^-6 M after 48 hrs by sulforhodamine B assay; conditions: PC-3, 48 h, read-out: Activity
TK-10 [13] = experiment: Growth inhibition of human TK10 cells assessed as cell growth at 10^-7 M after 48 hrs by sulforhodamine B assay; conditions: TK-10, 48 h, read-out: Activity
CCRF-CEM = experiment: Growth inhibition of human CCRF-CEM cells assessed as cell growth at 10^-6 M after 48 hrs by sulforhodamine B assay; conditions: read-out: Activity
[14] = Growth inhibition of human Hs 578T cells after 48 hrs by sulforhodamine B assay
[15] = Growth inhibition of human Hs 578T cells assessed as cell growth at 10^-7 M after 48 hrs by sulforhodamine B assay; conditions: read-out: Activity
[16] = Growth inhibition of human Hs 578T cells assessed as cell growth at 10^-6 M after 48 hrs by sulforhodamine B assay; conditions: read-out: Activity
[17] = Growth inhibition of human Hs 578T cells assessed as cell growth at 10^-4 M after 48 hrs by sulforhodamine B assay; conditions: read-out: Activity
[18] = read-out: LC50 (the source's name)

For `O=C1/C(=C/c2ccc(Cl)cc2Cl)CN(S(=O)(=O)c2ccccc2)C/C1=C\c1ccc(Cl)cc1Cl`, which growth at 100 µM (DU-145) is on record?
Its growth at 100 µM is -10%.

And the GI50 (NCI-H322M)?
Its GI50 is 0.676 µM.

And the LC50 (NCI-H322M)?
Its LC50 is over 100 µM.

And the growth at 0.01 µM (NCI-H322M)?
The growth at 0.01 µM was 107%.

What about the TGI (NCI-H322M) of the same molecule?
Its TGI is 3.55 µM.

And the growth at 0.1 µM (SF-268)?
The growth at 0.1 µM was 98%.

And the growth at 1 µM (KM12)?
Its growth at 1 µM is -30%.

And the growth at 1 µM (HOP-62 [1])?
The growth at 1 µM was 5%.

And the growth at 1 µM [2]?
The growth at 1 µM was 86%.

And the growth at 100 µM (T47D)?
The growth at 100 µM was 11%.

And the growth at 0.1 µM (SK-MEL-28)?
The growth at 0.1 µM was 93%.

What about the growth at 0.1 µM [3] of the same molecule?
The growth at 0.1 µM was 82%.

What about the growth at 0.1 µM [4] of the same molecule?
The growth at 0.1 µM was 109%.

And the growth at 1 µM [5]?
Its growth at 1 µM is 13%.

And the GI50 [6]?
Its GI50 is 4.08 µM.

And the TGI [6]?
The TGI was over 100 µM.

What about the CC50 [6] of the same molecule?
The CC50 was over 100 µM.

What about the growth at 1 µM (NCI-H23) of the same molecule?
The growth at 1 µM was 18%.

With `Cc1ccc(S(=O)(=O)N2C/C(=C\c3cc(F)cc(F)c3)C(=O)/C(=C/c3cc(F)cc(F)c3)C2)cc1` as the molecule, how does the growth at 100 µM (DU-145) read?
Its growth at 100 µM is -87%.

What about the GI50 [7] of the same molecule?
The GI50 was 0.398 µM.

What about the LC50 [7] of the same molecule?
The LC50 was over 100 µM.

And the growth at 0.01 µM ([7]; read-out: Activity)?
Its growth at 0.01 µM is 92%.

And the TGI ([7]; read-out: pTGI (converted))?
The TGI was 18.6 µM.

What about the growth at 100 µM (HOP-62 [8]) of the same molecule?
The growth at 100 µM was -93%.

What about the growth at 1 µM (TK-10 [9]) of the same molecule?
Its growth at 1 µM is 52%.

What about the GI50 (NCI-H322M) of the same molecule?
Its GI50 is 4.68 µM.

What about the LC50 (NCI-H322M) of the same molecule?
Its LC50 is over 100 µM.

And the growth at 0.01 µM (NCI-H322M)?
The growth at 0.01 µM was 102%.

What about the TGI (NCI-H322M) of the same molecule?
The TGI was 22.9 µM.

And the growth at 0.1 µM (SF-268)?
The growth at 0.1 µM was 100%.

And the growth at 100 µM (TK-10 [10])?
The growth at 100 µM was -85%.

What about the GI50 (TK-10 [11]) of the same molecule?
Its GI50 is 1.02 µM.

And the LC50 (50% lethal concentration) (TK-10 [11])?
Its LC50 (50% lethal concentration) is 8.51 µM.

And the growth at 0.01 µM (TK-10 [11]; read-out: Activity)?
The growth at 0.01 µM was 103%.

What about the TGI (TK-10 [11]; read-out: pTGI (converted)) of the same molecule?
The TGI was 2.95 µM.

What about the growth at 1 µM (HOP-62 [1]) of the same molecule?
The growth at 1 µM was 93%.

What about the growth at 1 µM [2] of the same molecule?
Its growth at 1 µM is 49%.

What about the GI50 (TK-10 [12]) of the same molecule?
Its GI50 is 1.03 µM.

And the TGI (TK-10 [12])?
The TGI was 2.96 µM.

What about the CC50 (TK-10 [12]; [18]) of the same molecule?
The CC50 was 8.46 µM.

What about the growth at 100 µM (T47D) of the same molecule?
The growth at 100 µM was -61%.

And the growth at 1 µM (PC-3)?
Its growth at 1 µM is -9%.

What about the growth at 0.1 µM (TK-10 [13]) of the same molecule?
Its growth at 0.1 µM is 106%.

And the growth at 1 µM (CCRF-CEM)?
Its growth at 1 µM is -1%.

And the growth at 0.1 µM (SK-MEL-28)?
The growth at 0.1 µM was 93%.

And the growth at 0.1 µM [3]?
Its growth at 0.1 µM is 93%.

What about the GI50 [14] of the same molecule?
Its GI50 is 0.399 µM.

And the TGI [14]?
Its TGI is 18.6 µM.

And the CC50 [14, 18]?
The CC50 was over 100 µM.

And the growth at 0.1 µM [15]?
Its growth at 0.1 µM is 93%.

What about the growth at 0.1 µM [4] of the same molecule?
Its growth at 0.1 µM is 106%.

And the growth at 1 µM [5]?
The growth at 1 µM was 29%.

What about the GI50 [6] of the same molecule?
Its GI50 is 0.939 µM.

What about the TGI [6] of the same molecule?
Its TGI is 2.9 µM.

What about the CC50 [6] of the same molecule?
The CC50 was 8.6 µM.

What about the growth at 1 µM [16] of the same molecule?
Its growth at 1 µM is 22%.

And the growth at 1 µM (NCI-H23)?
The growth at 1 µM was 77%.

What about the growth at 100 µM [17] of the same molecule?
Its growth at 100 µM is -23%.

— ChEMBL document CHEMBL3217615, “Novel 3,5-bis(arylidiene)-4-piperidone based monocarbonyl analogs of curcumin: anticancer activity evaluation and mode of action study” (2014)
